Like-named read-outs stand apart in the source and are kept apart here.
Columns and labels:
wild type (WT) pfDHFR = wild type (WT) pfDHFR (Plasmodium falciparum, UniProt P13922, N108S/R59C); assay: Inhibition of wild type pfDHFR (Ki); assay type: biochemical
Protocol: (§1) The synthesized 2,4-diamino-6-ethylpyrimdine derivatives as the hydrochloride salts were tested for the activities against Plasmodium falciparum (P. falciparum) according to the standard methods. These include the inhibition of dihydrofolate reductase (DHFR) enzymes of P. falciparum including, wild type (WT) and quadruple mutants (N51IC59RS108NI164L) (QM). The inhibition was expressed as inhibition constants (Ki) in nano molar (nM).

[1] = biological target: T1, Human dihydrofolate reductase (hDHFR) (Homo sapiens, UniProt P00374); assay: Inhibition of human dihydrofolate reductase (Ki); assay type: biochemical; conditions: human DHFR; hydrochloride salts
T1 sequence (P00374 1-187): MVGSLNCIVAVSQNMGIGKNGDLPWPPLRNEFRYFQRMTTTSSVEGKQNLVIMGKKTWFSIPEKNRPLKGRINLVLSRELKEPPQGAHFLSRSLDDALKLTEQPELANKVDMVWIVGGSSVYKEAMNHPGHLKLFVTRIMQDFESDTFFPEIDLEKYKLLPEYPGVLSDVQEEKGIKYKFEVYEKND

in vitro = conditions: African green monkey
Text: (§2) In Vitro Antimalarial Activites Against P. falciparum and Cytotoxicity Towards Mammalian Cells (Vero Cells)

[2] = biological target: quadruple mutant N51I + C59R + S108N + I164L (QM) pfDHFR (Plasmodium falciparum, UniProt P13922, I164L/N51I); assay: Inhibition of quadruple mutant pfDHFR (Ki); assay type: biochemical
Protocol: as §1

[3] = system: P. falciparum V1/S (N51I + C59R + S108 + I164L); assay: microbe, parasite or virus in culture; assay type: cell-based, Plasmodium falciparum; conditions: read-out: IC50 P. falciparum V1/S
Text: as §2

[4] = system: P. falciparum TM4/8.2 (wild type); assay: microbe, parasite or virus in culture; assay type: cell-based, Plasmodium falciparum; conditions: read-out: IC50 P. falciparum TM4/8.2 (WT)
Text: as §2

Vero cells = assay: in vitro; conditions: read-out: Cytotoxicity against Vero cells (IC50); Vero cells
Text: as §2

[5] = Plasmodium falciparum, in vitro, quadruple mutant strain V1/S
[6] = Plasmodium falciparum, in vitro, wild-type strain TM4/8.2

wild type (WT) pfDHFR, sequence (P13922 whole entry R59C/N108S): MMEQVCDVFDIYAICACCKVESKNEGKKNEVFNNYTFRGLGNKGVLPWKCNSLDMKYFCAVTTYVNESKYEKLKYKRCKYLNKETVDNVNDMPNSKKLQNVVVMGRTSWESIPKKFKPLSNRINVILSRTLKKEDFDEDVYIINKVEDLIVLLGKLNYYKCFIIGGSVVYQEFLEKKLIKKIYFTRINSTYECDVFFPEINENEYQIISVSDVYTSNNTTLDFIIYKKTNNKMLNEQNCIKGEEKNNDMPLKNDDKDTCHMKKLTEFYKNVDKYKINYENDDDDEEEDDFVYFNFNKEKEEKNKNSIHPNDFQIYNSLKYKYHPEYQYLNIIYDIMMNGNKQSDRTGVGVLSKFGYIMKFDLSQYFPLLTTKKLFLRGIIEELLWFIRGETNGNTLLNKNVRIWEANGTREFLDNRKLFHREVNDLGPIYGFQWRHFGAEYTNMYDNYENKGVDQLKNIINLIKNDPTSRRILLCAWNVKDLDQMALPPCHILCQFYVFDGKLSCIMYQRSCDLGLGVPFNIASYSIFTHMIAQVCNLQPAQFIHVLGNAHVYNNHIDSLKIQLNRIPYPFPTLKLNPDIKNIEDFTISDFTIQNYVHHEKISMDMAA
quadruple mutant N51I + C59R + S108N + I164L (QM) pfDHFR, sequence (P13922 whole entry N51I/I164L): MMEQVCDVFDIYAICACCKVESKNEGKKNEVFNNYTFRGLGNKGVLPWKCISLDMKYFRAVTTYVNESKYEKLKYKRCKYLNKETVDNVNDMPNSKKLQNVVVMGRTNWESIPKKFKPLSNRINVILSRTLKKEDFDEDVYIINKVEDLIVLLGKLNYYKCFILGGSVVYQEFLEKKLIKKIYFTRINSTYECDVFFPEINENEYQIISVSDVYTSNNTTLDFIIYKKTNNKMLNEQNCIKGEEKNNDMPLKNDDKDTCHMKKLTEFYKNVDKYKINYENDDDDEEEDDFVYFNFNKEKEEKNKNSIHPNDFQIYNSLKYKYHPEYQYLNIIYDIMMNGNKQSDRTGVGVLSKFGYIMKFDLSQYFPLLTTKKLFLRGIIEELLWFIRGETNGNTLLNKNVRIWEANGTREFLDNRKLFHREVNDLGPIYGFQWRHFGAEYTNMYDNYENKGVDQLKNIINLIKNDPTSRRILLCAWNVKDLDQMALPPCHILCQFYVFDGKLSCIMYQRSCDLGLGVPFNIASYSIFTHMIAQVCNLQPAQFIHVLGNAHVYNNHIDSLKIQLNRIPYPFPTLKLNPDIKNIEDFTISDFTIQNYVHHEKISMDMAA

Structure (SMILES) | Ki (wild type (WT) pfDHFR) | Ki [1] | IC50 (in vitro) | melting point | Ki [2] | IC50 [3, 5] | IC50 [4, 6] | IC50 ([3]; Plasmodium falciparum) | IC50 ([4]; Plasmodium falciparum) | IC50 (Vero cells) | IC50 ([3]; in vitro, quadruple mutant strain V1/S) | IC50 [4]
CCc1nc(N)nc(N)c1-c1cn(-c2cccc(C(=O)O)c2)nn1.Cl [Compound 2, 2,4-diamino-6-ethyl-5-(1-(3-(carboxy)phenyl)-1H-1,2,3-triazol-4-yl)pyrimidine Hydrochloride] | 1030 ± 89.3 nM | > 100000 nM | > 10000 nM | 205 to 207 °C | 6650 ± 409 nM | > 10000 nM | > 10000 nM |  |  |  |  | 
CCc1nc(N)nc(N)c1OCc1cn(-c2cccc(C(=O)O)c2)nn1.Cl [Compound 16, 2,4-diamino-6-ethyl-5-((1-(3-(carboxy)phenyl)-1H-1,2,3-triazol-4-yl)methoxy)pyrimidine Hydrochloride] | 0.27 ± 0.03 nM | 817 ± 145 nM | > 25000 nM | 197.5 to 199.5 °C | 6.18 ± 0.6 nM | > 25000 nM | 600 ± 240 nM |  |  |  |  | 
CCc1nc(N)nc(N)c1OCCCc1cc(-c2cccc(C(=O)O)c2)no1.Cl [Compound 49, 2,4-diamino-6-ethyl-5-(3-(3-(3-(carboxy)phenyl)isoxazol-5-yl)propoxy)pyrimidine Hydrochloride] | 0.19 ± 0.02 nM | 12.6 ± 1.43 nM | > 100000 nM | 219 to 220.5 °C | 0.29 ± 0.01 nM | 130 ± 40 nM | 7 ± 1.5 nM |  |  |  |  | 
CCc1nc(N)nc(N)c1OCc1csc(-c2cccc(C(=O)O)c2)n1.Cl [Compound 66, 2,4-diamino-6-ethyl-5-((2-(3-(carboxy)phenyl)thiazol-4-yl)methoxy)pyrimidine Hydrochloride] | 0.86 ± 0.1 nM | 102 ± 5.26 nM | > 10000 nM | 217.5 to 219 °C | 36.7 ± 4.79 nM | > 10000 nM | 2170 ± 540 nM |  |  |  |  | 
CCc1nc(N)nc(N)c1OCc1csc(-c2ccc(Br)cc2)n1 [Compound 71] | 0.76 ± 0.15 nM | 203 ± 27.2 nM | > 25000 nM |  | 24.3 ± 1.75 nM | 18700 ± 1900 nM | 1090 ± 440 nM |  |  |  |  | 
CCc1nc(N)nc(N)c1OCc1csc(-c2ccc(OCC(=O)OCc3ccccc3)cc2)n1 [Compound 72] | 0.8 ± 0.09 nM | 140 ± 22 nM | > 50000 nM |  | 30.3 ± 5.63 nM | > 50000 nM | 230 ± 30 nM |  |  |  |  | 
CCc1nc(N)nc(N)c1OCc1csc(-c2ccc(OCC(=O)O)cc2)n1 [Compound 73] | 0.65 ± 0.14 nM | 357 ± 34.4 nM | > 50000 nM |  | 28.9 ± 2.56 nM | > 50000 nM | 41 ± 6 nM |  |  |  |  | 
CCc1nc(N)nc(N)c1OCc1csc(-c2ccc(C(=O)OC)cc2)n1 [Compound 74] | 0.65 ± 0.06 nM | 447 ± 110 nM | > 50000 nM |  | 34 ± 5.42 nM |  |  | 15900 ± 2110 nM | 400 ± 130 nM |  |  | 
CCc1nc(N)nc(N)c1OCc1csc(-c2ccc(C(=O)O)cc2)n1 [Compound 75] | 0.69 ± 0.12 nM | 301 ± 24.4 nM | > 50000 nM |  | 39.2 ± 3.82 nM | > 50000 nM | 2650 ± 430 nM |  |  |  |  | 
CCc1nc(N)nc(N)c1OCCc1csc(-c2ccccc2)n1 [Compound 76] | 0.94 ± 0.16 nM | 21 ± 1.24 nM | 1330 ± 460 nM |  | 7.28 ± 0.69 nM | 17800 ± 6800 nM | 11 ± 2 nM |  |  |  |  | 
CCc1nc(N)nc(N)c1OCCCOc1ccccc1CCC(=O)O [Compound P218, reference compound] |  | 17.4 ± 3.8 nM |  |  |  |  |  |  |  | > 10000 nM | 56 ± 20 nM | 4.6 ± 1.9 nM

Reference: patent US11028072B2, “2,4-diamino-6-ethylpyrimidine derivatives with antimalarial activities against Plasmodium falciparum” (National Science and Technology Development Agency, priority 2015, dated 2021)
